Test results reported in patent US4563470A, “N-Substituted α,ωamino and imino-sulfonic acid salts and their application as cationic vectors of high cellular penetration” (Les Laboratories Meram, priority 1982, dated 1986).
Read-outs that look alike come from different tables or passages of the source.

Experiments:
[1] = Solubility; assay type: physicochemical; conditions: for solubility in alcohol / ethanol: alcohol or ethanol
[2] = Acute toxicity LD50 oral vs i.p. and B/P ratio, sodium salts (species not restated); assay type: in vivo; conditions: for selectivity ratio / LD50: in vivo
Source text: While the ratio for the reference salt, sodium chloride, is greater than 205.4/61.2=3.36, it is, for the imino compounds of Examples 1 and 5 7.0/3.0=2.33 and 6.7/4.4=1.52, respectively, and, for the amino compounds of Examples 2 and 6 (while not strictly determined but without doubt greater than 1), respectively greater than 20.1/20.1=1 and greater than […].

[3] = test system: Swiss I.O.P.S. mice; assay: in vivo; conditions: Swiss I.O.P.S. mouse; for LD50 by gastric tubage (B): oral
Procedure: (§1) The study is carried out with Swiss I.O.P.S. mice, in lots of 20 animals of both sexes.

[4] = in vivo; conditions: mouse, in vivo; for selectivity ratio: B/P ratio (oral LD50 / i.p. LD50)
Procedure: as §1

[5] = test system: insulin; assay: Potentiation of the hypoglycemic activity of insulin (test of Macallum et al.); assay type: in vivo, rabbit; conditions: for oral activity after the metabolic and neurologic tests: summary of insulin potentiation and kainic acid tests; for potentiation of the hypoglycemic activity of insulin, intravenous / potentiation of the hypoglycemic activity of insulin, oral: intravenous; for potentiation of the hypoglycemic activity of insulin, oral: non-convulsant dose of insulin
Procedure: (§2) By way of example, the compounds are tested, on one hand by the test of Macallum et al., Can.

[6] = Test of Frances et al. (ED50 rolling, trembling)
[7] = Antagonism of neurotoxic/convulsant activity of kainic acid, wet dog shaking (test of Fariello et al.); assay type: in vivo, rat; conditions: per os
Procedure: as §2

[8] = Acute toxicity LD50 oral vs i.p. and B/P ratio, rat; assay type: in vivo; conditions: in vivo, Sprague-Dawley I.O.P.S. rat
Source text: (§3) It has been determined that this discovery is not appropriate to a particular animal, by making the same observation for the Sprague-Dawley I.O.P.S. rat where the B/P ratio for magnesium chloride is greater than […]. For the respective compounds of Examples 13 and 14, the ratio is reduced in a most significant manner (p<0.001), to 3.3/2.2=1.5 and […].

[9] = Therapeutic use in a patient with latent tetany by magnesium deficiency; assay type: in vivo, human
Procedure: was attacked by latent tetany by magnesium deficiency. They were treated for two years by various forms of magnesotherapy: 3 g magnesium lactate per day or three drinkable ampoules of magnesium pyroglutamate (standardised 127 mg Mg^2+ per ampoule) per day, without succeeding in correcting an erythrocyte magnesium level varying from 43 to 46 mg/l. A prescription of 3 gelatine-coated pills of the compound of Example 13 led to a regression of […] (headache, asthenia, cramp) and the increase, to 48 mg/l in the first month and to 53 mg/l in the second month, of the erythrocyte magnesium level. Ultimately, it was nevertheless observed that each interruption in administration of the product was followed, in the subsequent chemical and biological monthly control, by a relapse (comprising the symptomotology and reduction of the erythrocyte magnesium level to about 45 mg/l).

[10] = test system: Sprague-Dawley I.O.P.S. rats; assay: Oral magnesium recharge in magnesium-deficient rats; assay type: in vivo, rat (Sprague-Dawley I.O.P.S.); conditions: for onset of correction of erythrocyte magnesium: 40, 20 or 5 mg magnesium/kg/day; for aggression of deficient rats with respect to mice (muricide activity): magnesium-deficient rats (25 ppm Mg); for erythrocyte magnesium level (hypercorrection): third day, deficient animals 40 mg, controls 60 mg
[11] = kainic acid administered systemically to the rat; Fariello et al. 1980; cited from earlier work
[12] = test system: Sprague-Dawley I.O.P.S. rat; assay: Acute toxicity LD50 oral vs i.p. and B/P ratio, rat; assay type: in vivo
Source text: as §3

[13] = oral, read-out: LD50 by gastric tubage (B)
[14] = ip, LD50 i.p. (P), Swiss I.O.P.S. mouse
[15] = po, LD50 by gastric tubage (B), Swiss I.O.P.S. mouse
[16] = ip, i.p., read-out: LD50 i.p. (P)
[17] = one patient, 3 gelatine-coated pills (750 mg, 32 mg Mg ion daily)

## Cc1ncc(CO)c(CNCCS(=O)(=O)[O-])c1O.[Na+] [Example 2, Sodium β-(3-hydroxy-5-hydroxymethyl-2-methyl-4-pyridylmethylamino)ethanesulfonate]
[1]; acetone
  solubility in acetone: Insoluble
[1]
  solubility in methanol: Poorly soluble
[1]; water
  solubility in water: Soluble
[2]
  selectivity ratio: > 1
[2]; ip, read-out: LD50 i.p. (P)
  LD50: 20100 µmol/kg
[2]; [13]
  LD50: > 20100 µmol/kg

## Cc1ncc(CO)c(CNCCS(=O)(=O)[O-])c1O.[Li+]
[1]
  solubility in acetone: Insoluble
  solubility in water: Soluble

## [Ca+2].[Cl-].[Cl-] [CaCl2, reference compound]
[3]
  B/P ratio (oral LD50 / i.p. LD50): > 9.2
  LD50 by gastric tubage (B): greater than 36.5 mmol/kg

## Cc1ncc(CO)c(C=NCCCS(=O)(=O)O)c1O [Example 12, Calcium γ-(3-hydroxy-5-hydroxymethyl-2-methyl-4-pyridylmethyleneimino)propanesulfonate]
[3]
  B/P ratio (oral LD50 / i.p. LD50): 3.3
[4]; [14]
  LD50: 2400 µmol/kg
[4]; [15]
  LD50: 8100 µmol/kg
[1]; acetone
  solubility in acetone: Insoluble
[1]
  solubility in methanol: Soluble
[1]; water
  solubility in water: Soluble

## Cc1ncc(CO)c(CNCCS(=O)(=O)[O-])c1O.[K+]
[4]; Swiss I.O.P.S. mouse
  selectivity ratio: 1.2
[4]; [14]
  LD50: 13000 µmol/kg
[4]; [15]
  LD50: 15700 µmol/kg
[1]
  solubility in acetone: Insoluble
  solubility in water: Soluble

## Cc1ncc(CO)c(C=NCCS(=O)(=O)O)c1O [Example 1, Sodium β-(3-hydroxy-5-hydroxymethyl-2-methyl-4-pyridylmethyleneimino)ethanesulfonate]
[1]
  solubility in alcohol / ethanol: Insoluble
[2]
  selectivity ratio: 2.33
[2]; ip, read-out: LD50 i.p. (P)
  LD50: 3000 µmol/kg
[2]; [13]
  LD50: 7000 µmol/kg

## vitamin B6
[5]
  oral activity after the metabolic and neurologic tests: inactive

## Cc1ncc(CO)c(C=NCCS(=O)(=O)O)c1O [Example 9, Lithium β-(3-hydroxy-5-hydroxymethyl-2-methyl-4-pyridylmethyleneimino)ethanesulfonate]
[1]; acetone
  solubility in acetone: Insoluble
[1]; water
  solubility in water: Soluble

## Cc1ncc(CO)c(C=NCCS(=O)(=O)O)c1O [Example 11, Calcium β-(3-hydroxy-5-hydroxymethyl-2-methyl-4-pyridylmethyleneimino)ethanesulfonate]
[3]
  B/P ratio (oral LD50 / i.p. LD50): 2.96
[4]; [14]
  LD50: 2600 µmol/kg
[4]; [15]
  LD50: 7700 µmol/kg

## NCCS(=O)(=O)O [Taurine, 2-aminoethanesulfonic acid]
[5]
  potentiation of the hypoglycemic activity of insulin, intravenous: active intravenously
  potentiation of the hypoglycemic activity of insulin, oral: not orally active
  oral activity after the metabolic and neurologic tests: inactive
[6]; read-out: ED50 rolling
  ED50: 4670 µmol/kg
[6]; read-out: ED50 trembling
  ED50: 4340 µmol/kg
[7]
  reduction of the neurotoxic effect of kainic acid (wet dog shaking): no significant reduction

## [Cl-].[Na+] [sodium chloride, reference compound]
[2]
  B/P ratio (oral LD50 / i.p. LD50): > 3.36
[2]; oral
  LD50 by gastric tubage (B): greater than 205.4 mmol/kg

## Cc1ncc(CO)c(C=NCCCS(=O)(=O)O)c1O [Example 7, Potassium γ-(3-hydroxy-5-hydroxymethyl-2-methyl-4-pyridylmethyleneimino)propanesulfonate]
[3]
  B/P ratio (oral LD50 / i.p. LD50): 1.75
  LD50 by gastric tubage (B): 7.0 mmol/kg
[1]; acetone
  solubility in acetone: Insoluble
[1]; water
  solubility in water: Soluble

## Cc1ncc(CO)c(CNCCCS(=O)(=O)[O-])c1O.[Na+]
[1]; acetone
  solubility in acetone: Insoluble
[1]; water
  solubility in water: Soluble
[2]
  selectivity ratio: > 1.43
[2]; ip, read-out: LD50 i.p. (P)
  LD50: 13000 µmol/kg
[2]; [13]
  LD50: > 19200 µmol/kg

## Cc1ncc(CO)c(C=NCCCS(=O)(=O)O)c1O [Example 5, Sodium γ-(3-hydroxy-5-hydroxymethyl-2-methyl-4-pyridylmethyleneimino)propanesulfonate]
[1]; acetone
  solubility in acetone: Insoluble
[1]
  solubility in alcohol / ethanol: Insoluble
[1]; water
  solubility in water: Soluble
[2]
  selectivity ratio: 1.52
[2]; ip, read-out: LD50 i.p. (P)
  LD50: 4400 µmol/kg
[2]; [13]
  LD50: 6700 µmol/kg

## Cc1ncc(CO)c(C=NCCCS(=O)(=O)O)c1O [lithium γ-(3-hydroxy-5-hydroxymethyl-2-methyl-4-pyridylmethy] [lithium γ-(3-hydroxy-5-hydroxymethyl-2-methyl-4-pyridylmethyleneimino)propanesulfonate]
[1]; acetone
  solubility in acetone: insoluble
[1]; water
  solubility in water: soluble

## Cc1ncc(CO)c(C=NCCS(=O)(=O)O)c1O [Example 13, Magnesium β-(3-hydroxy-5-hydroxymethyl-2-methyl-4-pyridylmethyleneimino)ethanesulfonate]
[8]; [16]
  LD50: 2200 µmol/kg
[8]
  selectivity ratio: 1.5
[8]; [13]
  LD50: 3300 µmol/kg
[3]
  B/P ratio (oral LD50 / i.p. LD50): 1.17
[4]; ip
  LD50: 2800 µmol/kg
[4]; po
  LD50: 3300 µmol/kg
[1]
  solubility in methanol: Insoluble
[9]; 750 mg daily (32 mg Mg ion) vs conventional magnesium salts at doses 10 times larger
  activity in controlling magnesium deficiency versus conventional magnesium salts: more active
[9]; one patient, 3 gelatine-coated pills
  symptoms (headache, asthenia, cramp): regression
[9]; [17]
  erythrocyte magnesium level, first month: 48 mg/L
  erythrocyte magnesium level, second month: 53 mg/L
[9]; one patient, relapse at subsequent monthly control
  erythrocyte magnesium level after interruption of administration: about 45 mg/l
[10]
  onset of hypercorrection of erythrocyte magnesium: third day
  onset of correction of erythrocyte magnesium: first day
  aggression of deficient rats with respect to mice (muricide activity): reduced aggression
  erythrocyte magnesium level (hypercorrection): 79.2 mg

## Cc1ncc(CO)c(CNCCCS(=O)(=O)[O-])c1O.[K+]
[4]; Swiss I.O.P.S. mouse
  selectivity ratio: 1.19
[4]; [14]
  LD50: 14200 µmol/kg
[4]; [15]
  LD50: 17000 µmol/kg
[6]; read-out: ED50 rolling
  ED50: 270 µmol/kg
[6]; read-out: ED50 trembling
  ED50: 270 µmol/kg
[6]; test of Frances et al.
  activity relative to taurine: 17 times
[1]
  solubility in acetone: Insoluble
  solubility in water: Soluble

## NCCCS(=O)(=O)O [homotaurine, 3-aminopropanesulfonic acid]
[11]
  antagonism of neurotoxic or convulsant activity of kainic acid: antagonises the neurotoxic or convulsant activity of kainic acid
[5]
  potentiation of the hypoglycemic activity of insulin, intravenous: active intravenously
  potentiation of the hypoglycemic activity of insulin, oral: not orally active
  oral activity after the metabolic and neurologic tests: inactive
[7]
  reduction of the neurotoxic effect of kainic acid (wet dog shaking): no significant reduction

## Cc1ncc(CO)c(C=NCCCS(=O)(=O)O)c1O [Example 14, Magnesium γ-(3-hydroxy-5-hydroxymethyl-2-methyl-4-pyridylmethyleneimino)propanesulfonate]
[8]; [16]
  LD50: 2400 µmol/kg
[8]
  selectivity ratio: 1.66
[8]; [13]
  LD50: 4200 µmol/kg
[3]
  B/P ratio (oral LD50 / i.p. LD50): 1.24
[4]; ip
  LD50: 3300 µmol/kg
[4]; po
  LD50: 4100 µmol/kg
[1]; acetone
  solubility in acetone: Insoluble
[1]
  solubility in methanol: Insoluble
[1]; water
  solubility in water: Soluble
[10]
  onset of hypercorrection of erythrocyte magnesium: third day
  onset of correction of erythrocyte magnesium: first day
  aggression of deficient rats with respect to mice (muricide activity): reduced aggression
  erythrocyte magnesium level (hypercorrection): 75.8 mg

## Cc1ncc(CO)c(CNCCCS(=O)(=O)[O-])c1O.[Li+]
[1]
  solubility in acetone: insoluble
  solubility in water: soluble

## Cc1ncc(CO)c(C=NCCS(=O)(=O)O)c1O [Example 3, Potassium β-(3-hydroxy-5-hydroxymethyl-2-methyl-4-pyridylmethyleneimino)ethanesulfonate]
[3]
  B/P ratio (oral LD50 / i.p. LD50): 1.79
  LD50 by gastric tubage (B): 7.0 mmol/kg

## [Cl-].[Cl-].[Mg+2] [magnesium chloride, reference compound]
[12]
  B/P ratio (oral LD50 / i.p. LD50): > 8.99
[12]; oral
  LD50 by gastric tubage (B): greater than 39.3 mmol/kg
[3]
  B/P ratio (oral LD50 / i.p. LD50): 2.04
  LD50 by gastric tubage (B): 19.2 mmol/kg

## [Cl-].[K+] [potassium chloride, reference compound]
[3]
  B/P ratio (oral LD50 / i.p. LD50): > 7.25
  LD50 by gastric tubage (B): greater than 107.3 mmol/kg
